Test results: patent publication US20040244713A1, “Method for treating animals or masses of water with compositions comprising quinone compounds” (priority 2003, published 2004)
Where two headings read alike, the source gives them in different places.

Assays:
[1] = test system: Eurytemora Affinis; assay: Toxicity test LC50 on Eurytemora Affinis; conditions: in vivo
From the text: (§9) The table below lists the results of the toxicity tests performed on fish fauna and on some phyto- and zooplankton species considered among the possible targets of the claimed method.

[2] = test system: Artemia Salina; assay: Toxicity test LC50 on Artemia Salina; conditions: in vivo
From the text: as §9

[3] = test system: Dreissena Polimorfa Larvae; assay: Toxicity test LC50 on Dreissena Polimorfa larvae; conditions: for LC50 Dreissena Polimorfa Larvae: in vivo
From the text: as §9

[4] = test system: Isochris Galbana; assay: Toxicity test LC50 on Isochris Galbana; type: cell-based
From the text: as §9

[5] = test system: Eurytemora Affinis; conditions: in vivo
From the text: as §9

[6] = Hydrolysis test performed in darkness; type: physicochemical
[7] = Photodegradability in sunlight and UV light; type: physicochemical; conditions: 10-ppm solution in drinking water (pH 6.5-7.5)
Method: In a fully similar manner, the same behaviour is confirmed if one assesses the photodegradability in sunlight and UV light (the radiation test was performed on a 10-ppm solution in drinking water (pH 6.5-7.5)

[8] = test system: Micrococcus sp. AE11; assay: MIC and MBC determination; type: cell-based; conditions: 24 hours in darkness, tested range 0.12-64 mg/l
Method: (§1) Tested concentration range: 0.12-64 mg/l.

[9] = test system: Bacillus subtilis; assay: MIC and MBC determination; type: cell-based; conditions: Bacillus subtilis ATCC 25923; 24 hours in darkness; tested range 0.12-64 mg/l
Method: as §1

[10] = test system: Micrococcus sp. AD10; assay: MIC and MBC determination; type: cell-based; conditions: 24 hours in darkness, tested range 0.12-64 mg/l
Method: as §1

[11] = test system: Aeromonas sp. CH34; assay: MIC and MBC determination; type: cell-based; conditions: 24 hours in darkness, tested range 0.12-64 mg/l
Method: as §1

[12] = test system: Pseudomonas putida NCIMB 1960; assay: MIC and MBC determination; type: cell-based; conditions: 24 hours in darkness, tested range 0.12-64 mg/l
Method: as §1

[13] = test system: Corynebacterium sp. CT15; assay: MIC and MBC determination; type: cell-based; conditions: 24 hours in darkness, tested range 0.12-64 mg/l
Method: as §1

[14] = test system: Vibrio parahaemolyticus AD19; assay: MIC and MBC determination; type: cell-based; conditions: 24 hours in darkness, tested range 0.12-64 mg/l
Method: as §1

[15] = test system: Staphylococcus aureus ATCC 25923; assay: MIC and MBC determination; type: cell-based; conditions: 24 hours in darkness, tested range 0.12-64 mg/l
Method: as §1

[16] = test system: Pseudomonas elongata NCIMB 1141; assay: MIC and MBC determination; type: cell-based; conditions: 24 hours in darkness, tested range 0.12-64 mg/l
Method: as §1

[17] = test system: Bacillus licheniformis NCIMB 1525; assay: MIC and MBC determination; type: cell-based; conditions: 24 hours in darkness, tested range 0.12-64 mg/l
Method: as §1

[18] = test system: Escherichia coli ATCC 25922; assay: MIC and MBC determination; type: cell-based; conditions: 24 hours in darkness, tested range 0.12-64 mg/l
Method: as §1

[19] = test system: Pseudomonas aeruginosa ATCC 10145; assay: MIC and MBC determination; type: cell-based; conditions: 24 hours in darkness, tested range 0.12-64 mg/l
Method: as §1

[20] = test system: Haemoncus contortus larvae (L1); assay: Motility of Haemoncus contortus larvae (L1); type: in vivo
Method: (§2) The effect of menadione nicotinamide bisulfite on Haemoncus contortus is assessed by measuring the motility of the larvae (L1), Table 2, and the faecal count of the larvae (L3), Table 2.1, according to the methodology described in Fetterer R. et Al. (1989) Vet. Parasitol. 32:181-189.

[21] = Biodegradability OECD 301 A (92/69/EEC C4-A); type: physicochemical
From the text: The degradability of a substance is normally a factor that is impossible to predict on a structural basis. […] On the basis of the available data related to the compounds that are chemically more similar to the derivatives of menadione described here, one could have expected a degradability comprised between the 0% (percentage calculated on the initial mass of product expressed as mg/l) of menadione (2-methyl-1,4-naphthalenedione) and the 17% (assessed after 28 days) of menadione sodium bisulfite (where the calculation was performed by using the OECD301 A guidelines annexed to EEC directive 92/69/EEC C4-A).
Finally, biodegradability according to the 92/69/EEC C4-A regulation was also assessed.

[22] = test system: Rainbow trout; assay: Toxicity test LC50 on fish fauna, Rainbow trout; type: in vivo
From the text: as §9

[23] = test system: Vibrio sp. AE7; conditions: 24 hours in darkness, tested range 0.12-64 mg/l
Method: (§3) The MNB compound was tested in particular for its antibacterial activity on pathogenic and non-pathogenic organisms. The biocidal activity of MNB was estimated by using two separate methods: the agar diffusion test (Kirby-Bauer method) and the determination of the Minimum Inhibiting Concentration (MIC) and the Minimum Bactericidal Concentration (MBC).
(§4) b) Test for determining the MIC (minimum inhibiting concentration) and the MBC (minimum bactericidal concentration) of MNB with respect to pathogenic organisms after the colonies were kept in darkness for 24 hours. Tested concentration range: 0.12-64 mg/l. The tested strains were environmental isolates identified by means of an internal number or were standard strains identified by means of the ATCC or MNCIB filing number.

[24] = test system: Vibrio sp. AD18; conditions: 24 hours in darkness, tested range 0.12-64 mg/l
Method: as §3, §4

[25] = test system: Vibrio sp. CH45; conditions: 24 hours in darkness, tested range 0.12-64 mg/l
Method: as §3, §4

[26] = Method: As noted repeatedly, the water solubility of the biocidal candidate is an essential requirement for advantageous use in biological water control. Accordingly, this property was evaluated for four of the compounds that are representative of the chemical classes to which the biocides currently in use belong.
[27] = test system: Haemoncus contortus larvae (L3); assay: Faecal count of Haemoncus contortus larvae (L3); type: in vivo
Method: as §2

[28] = test system: Staphylococcus aureus ATCC 25923; assay: Agar diffusion test (Kirby-Bauer); type: cell-based; conditions: MNB (100 μg) per disk, 24 hours in darkness
Method: (§5) a) Kirby-Bauer test performed after 24 hours in darkness.
(§6) In this test, paper disks impregnated with known quantities of MNB are placed on the surface of agar disks injected at confluence with a standard suspension of a bacterial strain. The antibacterial agent diffuses on the plate, causing the formation of an area of inhibition of the growth of the bacterial strain around the disk with the inhibiting quantity of the agent. By virtue of a calibration curve it was possible to classify the isolates into susceptible, moderately resistant, and resistant.
(§7) The method being considered, therefore, assesses the effectiveness of a single quantity of agent ([…]) against two control strains of Gram-positive and Gram-negative aerobic bacteria (Gram-negative: Pseudomonas elongata NCIMB 1141; Gram-positive: Staphylococcus aureus ATCC 25923).
(§8) The results are given in the table and represent the size of the inhibition halos in millimetres after contact with 100 μg of MNB.

[29] = test system: Pseudomonas elongata NCIMB 1141; assay: Agar diffusion test (Kirby-Bauer); type: cell-based; conditions: MNB (100 μg) per disk, 24 hours in darkness
Method: as §5, §6, §7, §8

[30] = Feeding trial in rabbits in the fattening stage (growth, mortality); type: in vivo, New Zealand White rabbits; conditions: in feed: Bacitracin zinc 1.5 ppm, MSB 250 ppm; for Final number of animals / Final average weight / Mortality %: end of fattening cycle (53 days after weaning); for Final number of animals: 200 animals initially; for Average daily growth: fattening cycle of 53 days after weaning
Method: The effect of a preparation comprising menadione sodium bisulfite coated with saturated vegetable fatty acids on rabbits in the fattening stage is evaluated.
Composition of the preparation (per Kg of final preparation):
MSB coated with hydrogenated vegetable fatty acids (1:1 inclusion ratio) 250 g;
This preparation is added in the quantity of 1 Kg per ton of feed, so that the final concentration of MSB is equal to 125 ppm/Kg of finished food. Since rabbits are fed with 120-150 grams of feed/day, the concentration of MSB is equal to an average daily dose of approximately 15-20 mg of MSB/animal per day.
New Zealand White animals, weaned at 32 days, were grown with the preparation cited above and compared with animals of the same race, fed with the same basic feed but treated with bacitracin zinc in a quantity equal to 150 mg/100 Kg of feed and with animals lacking any drug integration.

[31] = OECD301 A guidelines, cited from earlier work

CC1=CC(=O)c2c(O)cccc2C1=O [2-methyl-5-hydroxy-1,4-naphthalenedione]
LC50 Eurytemora Affinis [1]: 5 ppm | LC50 Artemia Salina [2]: 5 ppm | LC50 Dreissena Polimorfa Larvae [3]: 0.2 ppm | LC50 Isochris Galbana [4]: 0.5 ppm

Cc1ccc2c(c1)C(=O)c1ccccc1C2=O [2-methyl-anthraquinone]
LC50 Eurytemora Affinis [5]: 5 ppm | LC50 Artemia Salina [2]: 5 ppm | LC50 Dreissena Polimorfa Larvae [3]: 200 ppm | LC50 Isochris Galbana [4]: 0.5 ppm

O=C1C=CC(=O)c2c(O)cccc21 [Juglone, 5-hydroxy-1,4-naphthalenedione, reference compound]
½ LIFE, hydrolysis ([6]; PH 9, in darkness): 15 h | Light exp. Total Degr. [7]: 48 h

CC1(S(=O)(=O)O)CC(=O)c2ccccc2C1=O.NC(=O)c1cccnc1 (stereo not drawn) [MNB, menadione nicotinamide bisulfite]
MBC [8]: 16 µg/mL | MIC [8]: 8 µg/mL | MBC [9]: 32 µg/mL | MIC [9]: 12 µg/mL | MBC [10]: 32 µg/mL | MIC [10]: 16 µg/mL | MBC [11]: 64 µg/mL | MIC [11]: 32 µg/mL | MBC [12]: >64 µg/mL | MIC [12]: >64 µg/mL | MBC [13]: 16 µg/mL | MIC [13]: 8 µg/mL | MBC [14]: 4 µg/mL | MIC [14]: 1 µg/mL | MBC [15]: 16 µg/mL | MIC [15]: 8 µg/mL | MBC [16]: 16 µg/mL | MIC [16]: 8 µg/mL | MBC [17]: 32 µg/mL | MIC [17]: 16 µg/mL | MBC [18]: >64 µg/mL | MIC [18]: >64 µg/mL | MBC [19]: >64 µg/mL | MIC [19]: >64 µg/mL | ½ LIFE, hydrolysis ([6]; PH 6.8, in darkness): 48 h | ½ LIFE, hydrolysis ([6]; PH 9, in darkness): <3 h | % of motile larvae (L1) ([20]; 1 μg of MNB/ml): 70% | % of motile larvae (L1) ([20]; 10 μg of MNB/ml): 43% | % of motile larvae (L1) ([20]; 100 μg of MNB/ml): 3% | degradability compared with that of MSB [21]: as much as eight times higher | % biodegr. OECD 301 A ([21]; after 7 days): 37% | % biodegr. OECD 301 A ([21]; after 14 days): 37% | % biodegr. OECD 301 A ([21]; after 28 days): 40% | LC50 Rainbow trout (assessed on 96 h) [22]: 0.4 ppm | LC50 Eurytemora Affinis [1]: 5 ppm | MBC [23]: 32 to 64 µg/mL | MIC [23]: 16 to 32 µg/mL | MBC [24]: 32 µg/mL | MIC [24]: 16 µg/mL | MBC [25]: 16 µg/mL | MIC [25]: 16 µg/mL | Light exp. Total Degr. [7]: 48 h | Light exp. ½ life [7]: 10 h | Sol. in H2O [26]: 19 gr/l | Total no. of larvae (L3) ([27]; 1 μg of MNB/ml): 650 | Total no. of larvae (L3) ([27]; 10 μg of MNB/ml): 310 | Total no. of larvae (L3) ([27]; 100 μg of MNB/ml): 35 | size of the inhibition halos [28]: 20 mm | size of the inhibition halos [29]: 20 mm | LC50 Artemia Salina [2]: 5 ppm | LC50 Dreissena Polimorfa Larvae [3]: 1 ppm | LC50 Isochris Galbana [4]: 0.5 ppm

CC1(S(=O)(=O)[O-])CC(=O)c2ccccc2C1=O.[Na+] (stereo not drawn) [MSB, menadione sodium bisulfite]
% biodegr. OECD 301 A ([21]; after 7 days): 5% | % biodegr. OECD 301 A ([21]; after 14 days): 10% | Final number of animals [30]: 191 | Final average weight [30]: 2.84 kilograms | Mortality % [30]: 4.5% | Average daily growth [30]: 38.1 grams | degradability (percentage calculated on the initial mass of product expressed as mg/l) ([31]; assessed after 28 days, available/reported data): 17%

CC1=CC(=O)c2ccccc2C1=O [Menadione, 2-methyl-1,4-naphthalenedione, reference compound]
½ LIFE, hydrolysis ([6]; PH 6.8, in darkness): 1500 h | ½ LIFE, hydrolysis ([6]; PH 9, in darkness): 550 h | LC50 Eurytemora Affinis [5]: 5 ppm | LC50 Rainbow trout (assessed on 96 h) [22]: 0.1 ppm | Light exp. Total Degr. [7]: >5000 h | Light exp. ½ life [7]: 1500 h | LC50 Artemia Salina [2]: 5 ppm | LC50 on Dreissena Polimorfa relative to 2-methyl-5-hydroxy-1,4-naphthalenedione ([3]; 500 ppm vs 0.2 ppm): 2500 times | LC50 Dreissena Polimorfa Larvae [3]: 500 ppm | LC50 Isochris Galbana [4]: 0.05 ppm | degradability (percentage calculated on the initial mass of product expressed as mg/l) ([31]; available data, time not stated): 0%

bacitracin zinc [reference compound]
Final number of animals [30]: 185 | Final average weight [30]: 2.77 kilograms | Mortality % [30]: 7.5% | Average daily growth [30]: 36.8 grams
